The results in this text go back to patent US10703733B2, “MCL-1 inhibitors” (Gilead Sciences, Inc., priority 2018, dated 2020).

Molecules are shown by their SMILES. Where two headings read alike, the source gives them in different places.

One experiment relates to SKBR3 cells. Nature of the experiment: SKBR3 Cell Viability Assay (CellTiter Glo). The format is cell-based. To be noted: CellTiter Glo luminescence, read-out: MCL-1 CV SKBR3 EC50. The gist of the method: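 SKBR3 cells (6,000/well) in McCoy 5A + 10% FBS exposed to serially diluted compound for 72 h at 37° C., 5% CO2. Viability by CellTiter Glo luminescence; % inhibition normalized to DMSO (negative) and 10 μM puromycin (positive).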
A general note: ATP-based viability assays read luminescence as a measure of living cells.

In experiment [1] the target is MCL-1/Bim interaction (recombinant human MCL-1 protein, residues 171-327; biotinylated human Bim peptide, residues 51-76) (Homo sapiens (Human), UniProt Q07820). Nature of the experiment: MCL-1/Bim Binding AlphaLISA Assay. To be noted: 0.0625 nM 6xHis-Mcl-1 (171-327), 0.0625 nM biotinylated-Bim peptide. Put shortly: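 AlphaLISA with 0.0625 nM His-tagged MCL-1 and 0.0625 nM biotin-Bim peptide in 20 mM Hepes pH 7.5, 150 mM NaCl, 0.002% Brij 35, 1 mM DTT, 0.01% BSA. Compound preincubated 1 h with MCL-1, Bim added for 2 h, then acceptor and donor beads 1 h each.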
MCL-1/Bim interaction (recombinant human MCL-1 protein, residues 171-327; biotinylated human Bim peptide, residues 51-76), sequence (Q07820 171-327): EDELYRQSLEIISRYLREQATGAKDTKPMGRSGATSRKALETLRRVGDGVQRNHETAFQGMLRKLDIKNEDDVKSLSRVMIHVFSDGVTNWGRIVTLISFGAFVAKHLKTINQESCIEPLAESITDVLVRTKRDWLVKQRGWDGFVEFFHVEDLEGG

A word on the EC50: it is the concentration giving half of the maximal effect. One may read the IC50 as the point on the concentration scale where inhibition reaches its midpoint. Consider `CNCCO[C@H]1/C=C/[C@H](OC)[C@@H]2CC[C@H]2CN2C[C@@]3(CCCc4cc(Cl)ccc43)COc3ccc(cc32)C(=O)N=[S@](=O)(NC(=O)c2cn(C)nc2OC)C[C@H]1C` [Example 386], for which, in the experiment on SKBR3 cells (Homo sapiens, SK-BR-3, 72 h), the concentration for a half-maximal effect (EC50) turned out to be 83.8 nM. The IC50 in experiment [1] was 0.048 nM.
Turning to `CO[C@H]1/C=C/C[C@H](C)C[S@@](=O)(NC(=O)N2CC(OC(=O)N3CCOCC3)C2)=NC(=O)c2ccc3c(c2)N(C[C@@H]2CC[C@H]21)C[C@@]1(CCCc2cc(Cl)ccc21)CO3` [Example 387], the half-maximal effective concentration (EC50) in the experiment with SKBR3 cells (Homo sapiens, SK-BR-3, 72 h) was 162 nM. For the same molecule, the IC50 in experiment [1] was found to be 0.102 nM.
The like results for `COc1nn(C)cc1C(=O)N[S@@]1(=O)=NC(=O)c2ccc3c(c2)N(C[C@@H]2CC[C@H]2[C@@H](OC)/C=C/CCC1)C[C@@]1(CCCc2cc(Cl)ccc21)CO3` [Example 389] were, in that order, 304 nM and 0.075 nM.
For `COC1CN(C(=O)N[S@@]2(=O)=NC(=O)c3ccc4c(c3)N(C[C@@H]3CC[C@H]3[C@@H](OC)/C=C/CCC2)C[C@@]2(CCCc3cc(Cl)ccc32)CO4)C1` [Example 390], the EC50 in the experiment with SKBR3 cells (Homo sapiens, SK-BR-3, 72 h) worked out at 86.4 nM. The half-maximal inhibitory concentration (IC50) in experiment [1] turned out to be 0.061 nM.
As to `COc1cn(C)nc1C(=O)O[C@H]1/C=C/[C@H](OC)[C@@H]2CC[C@H]2CN2C[C@@]3(CCCc4cc(Cl)ccc43)COc3ccc(cc32)C(=O)N=[S@](=O)(NC(=O)c2cn(C)nc2OC)CC1` [Example 391], the EC50 with SKBR3 cells (72 hours) turned out to be 4560 nM. For the same molecule, the IC50 in experiment [1] turned out to be 0.702 nM.
In the case of `COc1nn(C)cc1C(=O)N[S@@]1(=O)=NC(=O)c2ccc3c(c2)N(C[C@@H]2CC[C@H]2[C@@H](OC)/C=C/[C@H](OC)CC1)C[C@@]1(CCCc2cc(Cl)ccc21)CO3` [Example 392], the EC50 with SKBR3 cells (Homo sapiens, SK-BR-3, 72 h) turned out to be 142 nM. Further, the half-maximal inhibitory concentration (IC50) in experiment [1] amounted to 0.07 nM.
On to `COc1nn(C)cc1C(=O)N[S@@]1(=O)=NC(=O)c2ccc3c(c2)N(C[C@@H]2CC[C@H]2[C@@H](OC)/C=C/[C@H](OC(C)=O)[C@H](C)C1)C[C@@]1(CCCc2cc(Cl)ccc21)CO3` [Example 393], for which, in the experiment on SKBR3 cells (Homo sapiens, SK-BR-3, 72 h), the concentration giving a half-maximal response (EC50) is 33.4 nM. In experiment [1], the IC50 stood at 0.062 nM.
The like results for `COc1nn(C)cc1C(=O)N[S@@]1(=O)=NC(=O)c2ccc3c(c2)N(C[C@@H]2CC[C@H]2[C@@H](OC)/C=C/[C@@H](OC)CC1)C[C@@]1(CCCc2cc(Cl)ccc21)CO3` [Example 394] were, in that order, 4750 nM and 1.72 nM.
Regarding `COc1nn(C)cc1C(=O)N[S@@]1(=O)=NC(=O)c2ccc3c(c2)N(C[C@@H]2CC[C@H]2[C@@H](OC)/C=C/[C@H](OC(=O)N(C)C)[C@H](C)C1C(=O)N(C)C)C[C@@]1(CCCc2cc(Cl)ccc21)CO3` (stereo partly drawn) [Example 395], the EC50 with SKBR3 cells (72 hours) stood at 6180 nM. In experiment [1], the IC50 is 5.27 nM.
Take `CO[C@H]1/C=C/[C@H](OC)[C@H](C)C[S@@](=O)(NC(=O)c2cc(CN3CCN4CCOC[C@@H]4C3)n(C)c2)=NC(=O)c2ccc3c(c2)N(C[C@@H]2CC[C@H]21)C[C@@]1(CCCc2cc(Cl)ccc21)CO3` [Example 399]: the EC50 in the experiment with SKBR3 cells (Homo sapiens, SK-BR-3, 72 h) was 20 nM. Besides, in experiment [1], the IC50 stood at 0.07 nM.
As for `COc1nn(C)cc1C(=O)N[S@@]1(=O)=NC(=O)c2ccc3c(c2)N(C[C@@H]2CC[C@H]2[C@@H](OC)/C=C/[C@H](OC(F)F)[C@H](C)C1)C[C@@]1(CCCc2cc(Cl)ccc21)CO3` [Example 400], the EC50 with SKBR3 cells (Homo sapiens, SK-BR-3, 72 h) is 530 nM. Also, the IC50 in experiment [1] worked out at 0.058 nM.
The matching figures for `COc1nn(C)cc1C(=O)N[S@@]1(=O)=NC(=O)c2ccc3c(c2)N(C[C@@H]2CC[C@H]2[C@@H](OC)/C=C/[C@H](OCC(=O)N(C)C)[C@H](C)C1)C[C@@]1(CCCc2cc(Cl)ccc21)CO3` [Example 401]: 118 nM and 0.044 nM.
The matching figures for `COc1nn(C)cc1C(=O)N[S@@]1(=O)=NC(=O)c2ccc3c(c2)N(C[C@@H]2CC[C@H]2[C@@H](OC)/C=C/[C@H](OCc2ccccn2)[C@H](C)C1)C[C@@]1(CCCc2cc(Cl)ccc21)CO3` [Example 402]: 90.2 nM and 0.098 nM.
The like results for `COc1nn(C)cc1C(=O)N[S@@]1(=O)=NC(=O)c2ccc3c(c2)N(C[C@@H]2CC[C@H]2[C@@H](OC)/C=C/[C@H](OCCN(C)C)[C@H](C)C1)C[C@@]1(CCCc2cc(Cl)ccc21)CO3` [Example 403] were, in that order, 13.8 nM and 0.059 nM.
On to `COc1nn(C)cc1C(=O)N[S@@]1(=O)=NC(=O)c2ccc3c(c2)N(C[C@@H]2CC[C@H]2[C@@H](OC(=O)N(C)C)/C=C/C[C@H](C)C1)C[C@@]1(CCCc2cc(Cl)ccc21)CO3` [Example 404], for which the EC50 with SKBR3 cells (Homo sapiens, SK-BR-3, 72 h) worked out at 197 nM. Further, in experiment [1], the IC50 was 0.092 nM.
The like results for `CCn1cc(C(=O)N[S@@]2(=O)=NC(=O)c3ccc4c(c3)N(C[C@@H]3CC[C@H]3[C@@H](OC)/C=C/CCC2)C[C@@]2(CCCc3cc(Cl)ccc32)CO4)cn1` [Example 405] were, in that order, 196 nM and 0.113 nM.
The matching figures for `CO[C@H]1/C=C\C[C@H](C)[C@@H](C)[S@@](=O)(NC(=O)COC2CCOCC2)=NC(=O)c2ccc3c(c2)N(C[C@@H]2CC[C@H]21)C[C@@]1(CCCc2cc(Cl)ccc21)CO3` [Example 406]: 332 nM and 0.103 nM.
The like results for `CCn1ccc(CCC(=O)N[S@@]2(=O)=NC(=O)c3ccc4c(c3)N(C[C@@H]3CC[C@H]3[C@@H](OC)/C=C/C[C@H](C)[C@H]2C)C[C@@]2(CCCc3cc(Cl)ccc32)CO4)n1` [Example 408] were, in that order, 241 nM and 0.054 nM.
Consider `CO[C@H]1/C=C/C[C@H](C)C[S@@](=O)(NC(=O)c2cnoc2)=NC(=O)c2ccc3c(c2)N(C[C@@H]2CC[C@H]21)C[C@@]1(CCCc2cc(Cl)ccc21)CO3` [Example 409], for which the EC50 with SKBR3 cells (Homo sapiens, SK-BR-3, 72 h) came to 297 nM. Besides, the IC50 in experiment [1] was determined as 0.147 nM.
The matching figures for `C[C@H]1C/C=C/[C@H](OCC2CC2)[C@@H]2CC[C@H]2CN2C[C@@]3(CCCc4cc(Cl)ccc43)COc3ccc(cc32)C(=O)N=[S@](=O)(NC(=O)c2cnn(C)c2)C1` [Example 410]: 146 nM and 0.194 nM.
The matching figures for `CO[C@H]1/C=C/C[C@H](C)C[S@@](=O)(NC(=O)c2cnsc2)=NC(=O)c2ccc3c(c2)N(C[C@@H]2CC[C@H]21)C[C@@]1(CCCc2cc(Cl)ccc21)CO3` [Example 411]: 175 nM and 0.178 nM.
The like results for `CO[C@H]1/C=C/C[C@H](C)C[S@@](=O)(NC(=O)C2Cc3cccnc3C2)=NC(=O)c2ccc3c(c2)N(C[C@@H]2CC[C@H]21)C[C@@]1(CCCc2cc(Cl)ccc21)CO3` (stereo partly drawn) [Example 412] were, in that order, 179 nM and 0.072 nM.
Consider `CO[C@H]1/C=C/C[C@H](C)C[S@@](=O)(NC(=O)c2cc(C)n(C)c2)=NC(=O)c2ccc3c(c2)N(C[C@@H]2CC[C@H]21)C[C@@]1(CCCc2cc(Cl)ccc21)CO3` [Example 413], for which the EC50 with SKBR3 cells (Homo sapiens, SK-BR-3, 72 h) worked out at 130 nM. Besides, the IC50 in experiment [1] turned out to be 0.478 nM.
The like results for `CO[C@H]1/C=C/C[C@H](C)[C@@H](C)[S@@](=O)(NC(=O)NC2CC2)=NC(=O)c2ccc3c(c2)N(C[C@@H]2CC[C@H]21)C[C@@]1(CCCc2cc(Cl)ccc21)CO3` [Example 414] were, in that order, 154 nM and 0.217 nM.
The like results for `CO[C@H]1/C=C/C[C@H](C)C[S@@](=O)(NC(=O)c2cc3n(c2)CCCC3)=NC(=O)c2ccc3c(c2)N(C[C@@H]2CC[C@H]21)C[C@@]1(CCCc2cc(Cl)ccc21)CO3` [Example 415] were, in that order, 105 nM and 0.526 nM.
The like results for `CO[C@H]1/C=C/C[C@H](C)C[S@@](=O)(NC(=O)CO[C@H]2CCOC[C@H]2F)=NC(=O)c2ccc3c(c2)N(C[C@@H]2CC[C@H]21)C[C@@]1(CCCc2cc(Cl)ccc21)CO3` [Example 416] were, in that order, 131 nM and 0.047 nM.
Consider `CO[C@H]1/C=C/CCC[S@@](=O)(NC(=O)COC2CCN(C(=O)N(C)C)CC2)=NC(=O)c2ccc3c(c2)N(C[C@@H]2CC[C@H]21)C[C@@]1(CCCc2cc(Cl)ccc21)CO3` [Example 417], for which, in the experiment on SKBR3 cells (Homo sapiens, SK-BR-3, 72 h), the EC50 was 403 nM. Besides, the half-inhibitory concentration (IC50) in experiment [1] amounted to 0.092 nM.
The like results for `COC(=O)N1CCC(OCC(=O)N[S@@]2(=O)=NC(=O)c3ccc4c(c3)N(C[C@@H]3CC[C@H]3[C@@H](OC)/C=C/C[C@H](C)[C@H]2C)C[C@@]2(CCCc3cc(Cl)ccc32)CO4)CC1` [Example 418] were, in that order, 335 nM and 0.197 nM.
The like results for `CO[C@H]1/C=C/C[C@H](C)C[S@@](=O)(NC(=O)c2cnn(CC3CC3)c2)=NC(=O)c2ccc3c(c2)N(C[C@@H]2CC[C@H]21)C[C@@]1(CCCc2cc(Cl)ccc21)CO3` [Example 419] were, in that order, 135 nM and 0.186 nM.
The matching figures for `CCCn1cc(C(=O)N[S@@]2(=O)=NC(=O)c3ccc4c(c3)N(C[C@@H]3CC[C@H]3[C@@H](OC)/C=C/C[C@H](C)C2)C[C@@]2(CCCc3cc(Cl)ccc32)CO4)cn1` [Example 420]: 124 nM and 0.237 nM.
Turning to `CCNC(=O)N[S@@]1(=O)=NC(=O)c2ccc3c(c2)N(C[C@@H]2CC[C@H]2[C@@H](OC)/C=C/C[C@H](C)C1)C[C@@]1(CCCc2cc(Cl)ccc21)CO3` [Example 421], in the experiment with SKBR3 cells (Homo sapiens, SK-BR-3, 72 h), the EC50 is 152 nM. For the same molecule, in experiment [1], the IC50 worked out at 0.081 nM.
The like results for `CCn1ncc(C(=O)N[S@@]2(=O)=NC(=O)c3ccc4c(c3)N(C[C@@H]3CC[C@H]3[C@@H](OC)/C=C/C[C@H](C)C2)C[C@@]2(CCCc3cc(Cl)ccc32)CO4)n1` [Example 422] were, in that order, 187 nM and 0.035 nM.
As to `CO[C@H]1/C=C/C[C@H](C)C[S@@](=O)(NC(=O)NC2CCC2)=NC(=O)c2ccc3c(c2)N(C[C@@H]2CC[C@H]21)C[C@@]1(CCCc2cc(Cl)ccc21)CO3` [Example 423], the EC50 in the experiment on SKBR3 cells (Homo sapiens, SK-BR-3, 72 h) amounted to 169 nM. The 50% inhibitory concentration (IC50) in experiment [1] was 0.056 nM.
